Experimental data reported in patent US20140275010A1, “QUATERNARY SALTS” (priority 2013, published 2014).

Columns and labels:
[1] = test system: WiDr cells: Colon cancer cells (wildtype SF3B1); assay: Cell viability assay (CellTiter-Glo), WiDr cells; assay type: cell-based; conditions: 72 hr
Description: (§1) Cells are seeded in 96-well plate with 2000 cells/100 uL/well and incubated overnight. Spent media was removed and fresh media containing compound (100 uL/well) with appropriate 9 concentrations are added. Each compound was treated in duplicate or triplicate manner at each concentration. DMSO concentration was adjusted to be 0.1%. Another plate was dedicated as Tz plate which was added 0.1% DMSO in media (100 uL/well) followed by CellTiter-Glo® (Promega corp., 50 uL/well) for ATP measurement as a surrogate of cell viability. Values from this plate are used as Tz. Compound treated plates are incubated for 72 hr at 37 C. Then, CellTiter-Glo® (50 uL/well) was added and ATP level was measured. Values from compound treated wells are used as Ti and DMSO treated wells are used as C.
(§2) Percentage growth inhibition was calculated as:
(§3) [(Ti−Tz)/(C−Tz)]×100 for concentrations for which Ti>/=Tz
(§4) [(Ti−Tz)/Tz]×100 for concentrations for which Ti<Tz.
(§5) *[time zero, (Tz), control growth (C), and test growth in the presence of drug with dose (Ti)] Growth inhibition of 50% (GI50) was calculated from [(Ti−Tz)/(C−Tz)]×100=50, which was the drug concentration resulting in a 50% reduction in the net protein increase in control cells during the drug incubation. The LC50 (concentration of drug resulting in a 50% reduction in the measured value at the end of the drug treatment as compared to that at the beginning) indicating a net loss of cells following treatment was calculated from [(Ti−Tz)/Tz]×100=−50.
(§6) Emax was defined as highest growth inhibition that particular compound achieved in tested dose range.

[2] = test system: WiDr-R cells: Colon cancer cells (chemically-induced SF3B1 mutant which is resistant to E7107 (R1074H mutation)); assay: Cell viability assay (CellTiter-Glo), WiDr-R cells; assay type: cell-based; conditions: 72 hr
Description: as §1, §2, §3, §4, §5, §6

[3] = test system: Panc 05.04 cells: Pancreatic cancer cells (Q699H and K700E mutations in SF3B1); assay: Cell viability assay (CellTiter-Glo), Panc 05.04 cells; assay type: cell-based; conditions: 72 hr; for Gl50 Panc 05.04: Panc 05.04 pancreatic cancer cells, SF3B1 Q699H and K700E, CellTiter-Glo; for Emax Panc 05.04: highest growth inhibition achieved in tested dose range
Description: as §1, §2, §3, §4, §5, §6

[4] = test system: Ad2 pre-mRNA splicing in HeLa nuclear extract; assay: In vitro splicing (biochemical) assay; conditions: in vitro splicing of Ad2 pre-mRNA, 30° C., 90 min, read-out: Biochem IC50
Description: In Vitro Splicing (Biochemical) Assay Protocol
Biotin-labeled pre-mRNA of an adenovirus type 2 construct with a deletion of intervening sequence (Ad2)^1 was prepared by in vitro transcription. The Ad2 construct containing Exon 1 (41 nt), Intron (231 nt), and Exon 2 (72 nt) was generated by gene synthesis and cloned into the EcoRI and XbaI sites of pGEM-3Z (Promega) by Genewiz. The plasmid was then linearized by XbaI digestion and purified. In vitro transcription and purification of transcribed pre-mRNA were performed using the MEGAScript T7 kit (Invitrogen) and MEGAclear kit (Invitrogen), respectively, following the manufacturer instructions. The ratio of biotin-16-UTP (Roche) to cold UTP was 1:13 to incorporate approximately two biotin molecules per spliced Ad2 mRNA.
In vitro splicing assay was performed at 30° C. in 25 μL reaction mixtures containing 95 μg HeLa nuclear extract (Promega), 47 nM Ad2 pre-mRNA, 25 U RNasin RNase inhibitor (Promega), 1×SP buffer (0.5 mM ATP, 20 mM creatine phosphate, 1.6 mM MgCl2), and compounds in DMSO (with 1% final concentration of DMSO). After 90 min of incubation, the reaction was stopped by addition of 18 μL of 5M NaCl, and the mixtures were incubated with 10 μL of M-280 streptavidin-coated magnetic beads (Invitrogen) for 30 min at room temperature to capture Ad2 pre- and spliced mRNA. The beads were washed twice with 100 uL buffer containing 10 mM Tris pH=7.5, 1 mM EDTA and 2M NaCl, and then incubated in RNA gel loading buffer containing 95% formamide at 70° C. for 10 min to elute the RNAs. Ad2 RNAs were resolved by 6% TBE-UREA gel, transferred to a nylon membrane, UV cross-linked, and probed with an IR-dye labeled streptavidin (LiCor) using LiCor detection. The amount of spliced RNA was quantified by measuring the band fluorescent intensity using LiCor software.

[5] = test system: reporter gene controlled by human VEGF promoter; conditions: read-out: IC50, inhibition of VEGF-promoted gene expression; cited from earlier work
U251 human glioma cells = U251 human glioma cells in vitro; read-out: IC50, inhibition of glioma cell proliferation; cited from earlier work

SMILES | Gl50 WiDr [1] [nM] | Gl50 WiDr-R [2] [nM] | Gl50 Panc 05.04 [3] [nM] | Emax Panc 05.04 [3] [%] | IC50 [4] [nM] | IC50 [5] [nM] | IC50 (U251 human glioma cells) [nM]
CC[C@H](O)[C@@H](C)[C@H]1O[C@@H]1C[C@H](C)/C=C/C=C(\C)[C@H]1OC(=O)C[C@H](O)CC[C@@](C)(O)[C@@H](OC(=O)N2CC[N+](C)(C3CCCCCC3)CC2)/C=C/[C@@H]1C.[I-] [Cpd. 1] | 1.1 | 368 | 0.6 | −61 | 10 |  | 
CC[C@H](O)[C@@H](C)[C@H]1O[C@@H]1C[C@H](C)/C=C/C=C(\C)[C@H]1OC(=O)C[C@H](O)CC[C@@](C)(O)[C@@H](OC(=O)N2CC[N+](C)(C)CC2)/C=C/[C@@H]1C.[I-] [Cpd. 2] | 8.9 | >1000 | 17.0 | −69 | 50 |  | 
CC[C@H](O)[C@@H](C)[C@H]1O[C@@H]1C[C@H](C)/C=C/C=C(\C)[C@H]1OC(=O)C[C@H](O)CC[C@@](C)(O)[C@@H](OC(=O)N2CC[N+](C)(C(C)C)CC2)/C=C/[C@@H]1C.[I-] [Cpd. 3] | 2.8 | >100 | 16.2 | −66 | 60 |  | 
CC[C@H](O)[C@@H](C)[C@H]1O[C@@H]1C[C@H](C)/C=C/C=C(\C)[C@H]1OC(=O)C[C@H](O)CC[C@@](C)(O)[C@@H](OC(=O)N2CCC[N+](C)(C(C)C)CC2)/C=C/[C@@H]1C.[I-] (stereo partly drawn) [Cpd. 10] | 1.9 | >1000 | 1.3 | −65 | 60 |  | 
CC[C@H](O)[C@@H](C)[C@H]1O[C@@H]1C[C@@](C)(O)/C=C/C=C(\C)[C@H]1OC(=O)C[C@H](O)CC[C@@](C)(O)[C@@H](OC(=O)N2CC[N+](C)(C3CCCCCC3)CC2)/C=C/[C@@H]1C.[I-] [Cpd. 17] | 64.5 | >1000 | 607.8 | −47 | < 100 |  | 
CCC(O)C(C)C1OC1CC(C)/C=C/C=C(\C)C1OC(=O)CC(O)CCC(C)(O)C(OC(C)=O)/C=C/C1C (stereo not drawn) [Pladienolide B] |  |  |  |  |  | 1.8 | 3.5
